The source of these data is patent US20200121684A1, “MODULATORS OF BTK PROTEOLYSIS AND METHODS OF USE” (Yale University, priority 2018, published 2020).

The target in experiment [1] is T1, HER3 (Homo sapiens, UniProt P21860).
T1 construct: endogenous in cells
The experiment is described as follows: HER3 (ERBB3) degradation, immunoblot. The format is cell-based. As to conditions: Table 5.

The target of experiment [2] is T2, BTK (Homo sapiens, UniProt Q06187).
T2 construct: host or cells: NAMALWA
T2 sequence (Q06187 whole entry): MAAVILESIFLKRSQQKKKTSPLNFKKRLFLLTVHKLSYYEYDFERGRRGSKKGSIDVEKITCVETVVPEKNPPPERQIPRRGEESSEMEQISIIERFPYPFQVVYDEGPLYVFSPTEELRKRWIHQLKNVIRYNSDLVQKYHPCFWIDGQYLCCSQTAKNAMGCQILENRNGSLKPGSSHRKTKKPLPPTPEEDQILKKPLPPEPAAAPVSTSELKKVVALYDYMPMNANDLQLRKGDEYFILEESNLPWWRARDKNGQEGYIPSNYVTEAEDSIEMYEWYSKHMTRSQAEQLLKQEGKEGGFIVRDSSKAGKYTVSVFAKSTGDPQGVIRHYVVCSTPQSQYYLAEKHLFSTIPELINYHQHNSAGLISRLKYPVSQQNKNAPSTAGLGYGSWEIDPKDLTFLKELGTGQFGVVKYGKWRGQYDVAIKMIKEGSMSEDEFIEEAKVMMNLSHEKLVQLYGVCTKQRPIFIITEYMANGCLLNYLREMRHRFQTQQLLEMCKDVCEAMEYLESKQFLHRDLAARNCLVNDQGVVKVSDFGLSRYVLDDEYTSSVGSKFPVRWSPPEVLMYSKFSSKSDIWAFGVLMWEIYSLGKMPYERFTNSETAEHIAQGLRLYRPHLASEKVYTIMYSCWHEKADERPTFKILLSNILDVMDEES
Put plainly: BTK degradation in NAMALWA cells, immunoblot. In kind it is cell-based. As to conditions: NAMALWA cells.

The target in experiment [3] is C481S BTK (Homo sapiens, UniProt Q06187, C481S). Put plainly: In vitro kinase inhibition, recombinant BTK, 10-point dose response, 10 μM ATP.
C481S BTK, sequence (Q06187 whole entry C481S): as the sequence (Q06187 whole entry) above, with C481S counted along it

Structures can show the parent of a compound that is named as a salt.

T1 sequence (P21860 20-1342): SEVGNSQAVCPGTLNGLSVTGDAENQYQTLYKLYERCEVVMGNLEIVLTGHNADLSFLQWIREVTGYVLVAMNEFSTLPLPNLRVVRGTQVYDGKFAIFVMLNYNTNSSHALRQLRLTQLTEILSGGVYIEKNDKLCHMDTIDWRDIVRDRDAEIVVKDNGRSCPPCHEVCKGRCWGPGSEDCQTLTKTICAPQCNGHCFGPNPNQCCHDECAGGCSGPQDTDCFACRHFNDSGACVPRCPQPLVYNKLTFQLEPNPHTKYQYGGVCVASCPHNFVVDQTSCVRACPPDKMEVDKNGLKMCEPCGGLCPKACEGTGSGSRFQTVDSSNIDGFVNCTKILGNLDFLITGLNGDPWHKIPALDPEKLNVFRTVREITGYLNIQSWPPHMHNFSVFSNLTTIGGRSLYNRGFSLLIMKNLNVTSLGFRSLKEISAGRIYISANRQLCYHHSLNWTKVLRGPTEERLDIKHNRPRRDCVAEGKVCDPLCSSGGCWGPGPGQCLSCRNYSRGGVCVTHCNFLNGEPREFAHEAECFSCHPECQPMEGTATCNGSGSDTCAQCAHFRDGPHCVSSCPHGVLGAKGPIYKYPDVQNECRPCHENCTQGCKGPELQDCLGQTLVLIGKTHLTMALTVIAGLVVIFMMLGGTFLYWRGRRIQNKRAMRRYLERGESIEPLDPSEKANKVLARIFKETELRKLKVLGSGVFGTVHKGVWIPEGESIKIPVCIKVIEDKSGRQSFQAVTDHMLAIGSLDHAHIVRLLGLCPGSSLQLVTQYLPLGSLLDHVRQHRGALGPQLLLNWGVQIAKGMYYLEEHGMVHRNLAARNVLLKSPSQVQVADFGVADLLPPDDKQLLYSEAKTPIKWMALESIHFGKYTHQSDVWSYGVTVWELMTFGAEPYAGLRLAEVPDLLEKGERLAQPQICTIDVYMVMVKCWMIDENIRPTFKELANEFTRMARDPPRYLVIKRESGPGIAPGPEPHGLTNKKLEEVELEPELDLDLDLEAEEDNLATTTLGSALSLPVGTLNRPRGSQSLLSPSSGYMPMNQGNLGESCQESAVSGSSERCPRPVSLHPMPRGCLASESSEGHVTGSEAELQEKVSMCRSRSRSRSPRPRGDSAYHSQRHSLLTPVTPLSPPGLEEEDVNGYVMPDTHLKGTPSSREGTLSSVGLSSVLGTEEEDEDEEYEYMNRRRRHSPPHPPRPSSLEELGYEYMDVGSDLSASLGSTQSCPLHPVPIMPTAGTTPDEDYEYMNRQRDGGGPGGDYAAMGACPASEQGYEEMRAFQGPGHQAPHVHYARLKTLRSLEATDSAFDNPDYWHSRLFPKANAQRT

Take “(2S,4R)-1-((S)-25-(4-(4-amino-3-(4-phenoxyphenyl)-1H-pyrazolo[3,4-d]pyrimidin-1-yl)piperidin-1-yl)-2,2-dimethyl-5-oxo-7,10,13,16,19-pentaoxa-4-azapentacosanecarbonyl)-4-hydroxy-N-(4-(4-methylthiazol-5-yl)benzyl)pyrrolidine-2-carboxamide [Compound 118]”: in experiment [1], the “HER3 Degradation” value is “No”. Besides, in experiment [2] (Table 5), the DC50 is 231 nM.

On to `Nc1ncnc2c1c(-c1ccc(Oc3ccccc3)cc1)nn2C1CCN(CCCCCCOCCOCC(=O)Nc2cccc3c2C(=O)N(C2CCC(=O)NC2=O)C3=O)CC1` (centres unmarked) [Compound 104, 2-(2-(6-(4-(4-amino-3-(4-phenoxyphenyl)-1H-pyrazolo[3,4-d]pyrimidin-1-yl)piperidin-1-yl)hexyloxy)ethoxy)-N-(2-(2,6-dioxopiperidin-3-yl)-1,3-dioxoisoindolin-4-yl)acetamide], for which the “HER3 Degradation” value in experiment [1] is given as “No”. The “BTK degradation at 1.0 μM” value in experiment [2] is “nearly complete degradation of BTK”.

Take `Nc1ncnc2c1c(-c1ccc(Oc3ccccc3)cc1)nn2C1CCNCC1` [compound 1, 3-(4-phenoxyphenyl)-1-(piperidin-4-yl)-1H-pyrazolo[3,4-d]pyrimidin-4-amine hydrochloride, reference compound]: the “inhibition potency against C481S mutant BTK relative to wild-type” value in experiment [3] was “retained inhibition potency”.

As to `Nc1ncnc2c1c(-c1ccc(Oc3ccccc3)cc1)nn2C1CCN(CCCCOCCCCOCC(=O)Nc2cccc3c2C(=O)N(C2CCC(=O)NC2=O)C3=O)CC1` (centres unmarked) [Compound 106, 2-[4-[4-[4-[4-amino-3-(4-phenoxyphenyl)pyrazolo[3,4-d]pyrimidin-1-yl]-1-piperidyl]butoxy]butoxy]-N-[2-(2,6-dioxo-3-piperidyl)-1,3-dioxo-isoindolin-4-yl]acetamide], the “HER3 Degradation” value in experiment [1] was “No”. The “BTK degradation at 1.0 μM” value in experiment [2] was “nearly complete degradation of BTK”.

Turning to `Cc1ncsc1-c1ccc(CNC(=O)[C@@H]2C[C@@H](O)CN2C(=O)[C@@H](NC(=O)COCCCCCOCCCCCCN2CCC(n3nc(-c4ccc(Oc5ccccc5)cc4)c4c(N)ncnc43)CC2)C(C)(C)C)cc1` [Compound 111, (2S,4R)-1-((S)-2-(2-(5-(6-(4-(4-amino-3-(4-phenoxyphenyl)-1H-pyrazolo[3,4-d]pyrimidin-1-yl)piperidin-1-yl)hexyloxy)pentyloxy)acetamido)-3,3-dimethylbutanoyl)-4-hydroxy-N-(4-(4-methylthiazol-5-yl)benzyl)pyrrolidine-2-carboxainide], the “HER3 Degradation” value in experiment [1] is given as “No”.
